From article PMC5399447, “Neuroprotective pentapeptide CN-105 is associated with reduced sterile inflammation and improved functional outcomes in a traumatic brain injury murine model” (Scientific Reports, 2017)

Experiments:
[1] = mouse, in vivo, iv, 1.92 mg/kg
Protocol: Pharmacokinetic studies were conducted by Xenobiotic Laboratories(Plainsboro, NJ). Briefly, male CD-1 mice received a single IV bolus dose of [^14C] CN-105 52 μCi/mg(dose of 1.92 mg/kg, and approximately 100 μCi/kg) by tail vein injection. At 0.083, 0.5, 1, 6, 24, and 48 hours post-dose terminal blood samples were collected from 2 animals per timepoint and plasma was isolated for radiometric analysis.
To assess CNS penetration, quantitative whole body autoradiography(QWBA) analysis was performed and areas of interest in blood and brain were compared. The carcasses were frozen in a dry ice/hexane bath and embedded in low viscosity carboxymethylcellulose for sagittal, 30-μm thick sections of low viscosity carboxymethylcellulose-of mouse carcasses were sectioned. Pharmacokinetic data were generated by non-compartmental PK analysis of total radioactivity concentration vs. time profiles for tissues using WinNonlin(version 6.3, Pharsight Corporation, Mountain View, CA).
Selected tissues and areas of interest(AOI) were analyzed using QWBA. The tissues and AOI were analyzed within AIDA software using a region sampling tool. The following parameters were derived for individual subjects: maximum tissue and plasma concentration(Cmax), time of Cmax(tmax), area under the tissue concentration versus time curve from time zero to the last quantifiable tissue concentration(AUC0-t), area under the tissue concentration versus time curve from time zero to 4 hours(AUC0-4), and the apparent terminal half-life(t½). AUC0-4 was calculated using the linear trapezoidal rule. Results for AOIs are expressed in nanogram equivalents of(^14C) CN-105 per gram of tissue(ng equv./g) and were calculated as follows: ng equiv./g is equal to nCi per gram of tissue per nCi/ng of(^14C) CN-105.

[2] = system: murine closed head injury model (TBI); assay: Rotarod vestibulomotor function after closed head injury; type: in vivo, mouse; details: for Rotarod functional performance compared to vehicle: n = 11-12/group
Text: The murine closed head injury model used in this study was previously described. The closed head impact results in injury to selectively vulnerable neurons in cortex and hippocampus, and is associated with vestibulomotor deficits and long term neurocognitive deficits. Although animals do lose body weight, they rapidly regain spontaneous ventilation, righting reflex, and the ability to ambulate. Briefly, 12–14 week-old C57Bl/6 J male mice(Jackson Laboratories, Bar Harbor, ME) were used. The trachea was intubated after anesthesia induction with 4.6% isoflurane and the lungs were mechanically ventilated with 1.6% isoflurane in 30% O2/70% N2. Core body temperature was maintained at 37 °C through a rectal probe. To avoid basilar skull fracture, ear bars are not used. The animal was secured in a stereotactic device in a prone position on a molded acrylic cast with surgical tape across the shoulders. The intubation tube was also secured to the acrylic cast with tape. The acrylic cast is designed to allow the mouse to have 3 mm of space below the head to allow for acceleration/decelaration of the head in this position. The head was shaved and the scalp was incised to expose the skull and identify anatomical landmarks. A concave 3-mm metallic disc was adhered to the skull immediately caudal to bregma. A 2.0-mm diameter pneumatic impactor(Air-Power Inc., High Point, NC) was used to deliver a single midline impact to the center of the disc surface. The impactor was discharged at 6.8 ± 0.2 m/second with a head displacement of 3 mm. After impact, the animals were allowed to recover spontaneous ventilation and then the tracheas were extubated. Mice were allowed free access to food and water. Sham mice were treated identically except for the absence of impact. All mice were housed in the same facility.
CN-105(Ac-VSRRR-amide) was synthesized by Polypeptide Inc.(San Diego, CA) to a purity of >99%, and was delivered in sterile normal saline. […] Vehicle treated animals received intravenous injection of 100 μL of normal saline at the same time points. Animals were assigned to treatment group by a coded study identification number after injury using a paper randomization protocol. A block randomization scheme was used, so that an equal number of animals were randomized to each of the treatment groups during concurrent experiments.
An automated Rotarod(Ugo Basile, Comerio, Italy) was used to assess vestibulomotor function. On the day prior to injury, mice(n = 11–12 mice per group) underwent one training trial at an accelerating rotational speed(4–40 rpm) for at least 200 seconds and then three additional test trials with the same accelerating rotational speed. The average time to fall from the rotating cylinder in the test trials was recorded as baseline latency. Mice were tested on consecutive days post-injury and received three consecutive daily trials with accelerating rotational speed(inter-trial interval = 15 minutes)(n = 10–12 mice). The average latency to fall from the rod was recorded. Mice unable to grasp the rotating rod were given a latency value of 0 seconds.

[3] = system: microglia in hippocampus of TBI injured mice; assay: F4/80 immunostained microglia, unbiased stereology; type: in vivo, mouse; details: 0.05 mg/kg, 10 days post TBI
Protocol: To assess the effects of CN-105 on inflammation, neuronal injury and neuronal loss, immunohistochemical(IHC) staining was performed using the F4/80 antibody(a marker for mature microglia and macrophages; rat monoclonal, 1:10,000; Serotec, Raleigh, NC) and the Fluoro-Jade B stain(a marker of degenerating neurons; Histo-Chem Inc. Jefferson, AR) on days 10 and 1, respectively, after TBI. IHC was performed on separate cohorts of mice from those used in neurobehavioral tests. As previously described, mice were anesthetized, euthanized, and perfused with 30 ml phosphate-buffered saline(PBS) via transcardiac puncture. The brains were then immersed in buffered formalin overnight and saturated with 30% sucrose in buffer. Sagittal sections(40 μm) were sliced on a freezing microtome and collected in cryoprotectant solution. […]
Prior to quantification, all slides were coded and the analyst was blinded to avoid experimenter bias. For the F4/80 quantification the brains of 5 TBI treated and 6 TBI vehicle treated mice(4–6 sections/mouse) were counted. Every eighth section of the dorsal hippocampus, according to the Paxinos and Franklin(2001) mouse brain atlas, was analyzed using the Stereo Investigator 7.0 software(MicroBrightField, Williston, VT). […] An average of 12 counting frames was analyzed per section, the grid size was 450 × 450 μm, and the dissector dimensions were 80 × 80 × 10 μm. […]

## Ac-VSRRR-amide [CN-105]
[1]
  initial plasma half-life: 29 min
  tmax in serum: 5 min
  tmax in the brain: 30 min
[2]; 0.0125 mg/kg iv 2 h after TBI, p = 0.267
  Rotarod functional performance compared to vehicle: did not show robust improvement
[2]; 0.05 mg/kg iv 2 h after TBI, p = 0.011
  Rotarod functional performance compared to vehicle: improved functional performance
[2]; 0.05 mg/kg iv 4 hours post-injury
  Rotarod latency compared to vehicle: significant and durable improvement in Rotarod latency
[2]; 0.2 mg/kg iv 2 h after TBI, p = 0.023
  Rotarod functional performance compared to vehicle: improved functional performance
[2]; 0.8 mg/kg iv 2 h after TBI, p = 0.009
  Rotarod functional performance compared to vehicle: improved functional performance
[2]; iv 2 h after TBI, Rotarod
  lowest effective dose resulting in improved functional performance: 0.05 mg/kg
[2]; pretreatment 30 minutes prior to TBI, data not shown
  effect of pretreatment on vestibulomotor and cognitive function: no additional effects on vestibulomotor and cognitive function
[3]; 5 treated and 6 vehicle mice, p = 0.0002
  density of F4/80 microglia in dorsal hippocampus compared to vehicle: significant decrease in density of microglia
[3]; hippocampus
  microglia morphology: almost exclusively small ramified microglia
